Values of other authors in patent publication US11911501B1, “Biocompatible resin composition and method of manufacturing dissolvable microneedles for transdermal delivery using biocompatible resin” (Florida A&M University, priority 2020, dated 2024).

System: clonal SV 40 large T-antigen transfected human pulp-derived cells (tHPC)
Conditions: reference [1]

Cc1cc(C)c(C(=O)P(=O)(c2ccccc2)c2ccccc2)c(C)c1 [TPO, diphenyl(2,4,6-trimethylbenzoyl)phosphine oxide]
toxicity: cause toxicity
